{"source": "paper PMC3253173", "about": "(Free radical biology & medicine, 2011)", "molecular_target": "T1, gp91phox (Homo sapiens, UniProt P04839)", "T1 sequence (P04839 2-570)": "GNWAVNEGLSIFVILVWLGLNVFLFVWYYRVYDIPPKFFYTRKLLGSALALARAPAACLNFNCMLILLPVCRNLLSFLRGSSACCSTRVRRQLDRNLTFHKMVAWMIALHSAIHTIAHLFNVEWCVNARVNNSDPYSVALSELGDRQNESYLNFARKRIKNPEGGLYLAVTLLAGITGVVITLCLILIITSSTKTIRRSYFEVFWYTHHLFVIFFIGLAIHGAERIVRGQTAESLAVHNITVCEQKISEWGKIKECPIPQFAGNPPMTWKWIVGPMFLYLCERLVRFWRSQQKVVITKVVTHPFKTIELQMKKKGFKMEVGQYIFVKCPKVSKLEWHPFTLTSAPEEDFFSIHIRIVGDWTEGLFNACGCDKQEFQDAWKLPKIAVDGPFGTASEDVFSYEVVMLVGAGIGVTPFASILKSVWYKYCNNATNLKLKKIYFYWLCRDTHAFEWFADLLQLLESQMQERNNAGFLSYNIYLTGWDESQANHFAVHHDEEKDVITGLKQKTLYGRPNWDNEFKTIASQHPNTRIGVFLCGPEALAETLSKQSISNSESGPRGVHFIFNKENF", "T1 sequence (P13498 2-195 partner)": "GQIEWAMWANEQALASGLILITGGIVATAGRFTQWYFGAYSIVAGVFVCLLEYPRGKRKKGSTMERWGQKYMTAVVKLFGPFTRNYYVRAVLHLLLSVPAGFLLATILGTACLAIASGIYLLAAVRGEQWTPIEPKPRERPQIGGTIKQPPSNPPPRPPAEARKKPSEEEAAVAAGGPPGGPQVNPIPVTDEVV", "assay": "saturation radioligand binding on COS-cytob558 membranes"}
{"smiles": "C=C(C)[C@H]1Cc2c(ccc3c2O[C@@H]2COc4cc(OC)c(OC)cc4[C@@H]2C3=O)O1", "note": "[rotenone]", "values": [{"measurement": "Kd", "result": "21.2 ± 3.47", "unit": "nM"}]}
